Assay results from patent US20110288174A1, “Monohydrate of 4-(phenyl)ethyl]-amino}methyl)benzoic acid” (BAYER SCHERING PHARMA AKTIENGESELLSCHAFT, priority 2008, published 2011).

Assay: Stability of the solid forms (thermodynamic and storage stability)
Format: physicochemical
Conditions: for thermodynamic stability of the crystal form: solid form of the compound of the formula (I)

Compound | thermodynamic stability of the crystal form | storage stability (even after processing to aqueous suspensions)
O=C(O)CCCCN(CCc1ccccc1OCc1ccc(CCc2ccccc2)cc1)Cc1ccc(C(=O)O)cc1 [modification IV, 4-({(4-Carboxybutyl)[2-(2-{[4-(2-phenylethyl)benzyl]oxy}phenyl)ethyl]amino}methyl)benzoic acid] | metastable | –
O=C(O)CCCCN(CCc1ccccc1OCc1ccc(CCc2ccccc2)cc1)Cc1ccc(C(=O)O)cc1 [monohydrate A, monohydrate of 4-({(4-carboxybutyl)[2-(2-{[4-(2-phenylethyl)benzyl]oxy}phenyl)ethyl]amino}methyl)benzoic acid in form A] | thermodynamically stable | storage-stable
